Series [1] is described as follows: Bone powder binding, LC/MS detection. The note with it: 100 μM compound, Tris-HCl pH 7, 0.15M NaCl, ground rat tibia bone, 10 min. As for the experimental part:
The ability of the example molecules to bind to bone powder was established in two parallel fashions, using either LC/MS or fluorometric detection. For LC/MS detection, a stock solution (5 mM) of the compound to be tested was added to 0.1M Tris-HCl buffer pH 7, 0.15M NaCl to reach a final concentration of 100 μM. Triplicate samples (1 mL) of the compound solutions were intensively shaken for 10 min with or without 25 mg of fresh or 20 mg of vacuum dried ground rat tibia bone. The samples were then centrifuged for 15 min at 10 000 g. The presence of unbound compound was measured by injection of 30 μL of each of the supernatants into an Agilent 1100™ LC/UV system. For fluorometric detection, an individual compound was dissolved in PBS or water (compound 52) and resuspended at a concentration of 1 mg/ml in a slurry of bone meal powder (Now Foods, Bloomingdale, Ill., USA) in PBS at 10 mg/ml. The suspension of drug/prodrug in bone meal powder was incubated at 37° C. for 1 h to allow for binding, and centrifuged at 13 000 rpm for 2 min, before recovering the supernatant. The bone meal powder pellet was then washed three times with 1 ml of PBS. All supernatants were saved and assessed for fluoroquinolone content by fluorescence measurements at excitation/emission wavelengths of 280/465 nm. The amount of fluoroquinolone was determined from standard curves generated for each experiment. Amount of drug/prodrug bound to bone powder was deduced from the difference between the input amount (typically 1 mg) and the amount recovered in the supernatants after binding. In all binding experiments, >99% of input drug was recovered in the supernatant for the parent drugs.

Series [2] is described as follows: Regenerated moxifloxacin in infected and uninfected rat tibiae. It counts as in vivo. The note with it: 52 IV 15.8 or 31.6 mg/kg one day after surgery; tibiae one and six days after treatment. As for the experimental part: Rats were infected as in Example 7, and treated IV with either 15.8 or 31.6 mg/kg of body weight of prodrug 52 one day after surgery. One day and six days following the treatment, the tibiae were collected as described previously. The levels of regenerated moxifloxacin 3 were determined as follows.
The experimentally obtained whole tibia was ground to a powder which was suspended in 5% formic acid in methanol (500 mg/1.6 ml) to extract the released moxifloxacin 3. The mixture was vortexed for 10 minutes and centrifuged for 20 minutes at 1250 g.
Standards (from 5 to 1000 ng), QCs (25 and 250 ng) and blanks were prepared (in duplicate) as follows: to blank tibia powder (50 mg, not dried) was added the 5% formic acid solution in methanol (160 μl) and the spiking solution of moxifloxacin 3 in water (10 μl). The mixtures were vortexed for 10 minutes and centrifuged for 10 minutes at 2500 g. The supernatant was transferred into another vial, spiked with the internal standard, vortexed and evaporated to dryness. In each case, the resulting dried residues (samples, standards, QCs and blanks) were reconstituted in 200 μl of water, vortexed for 15 min and centrifuged for 15 min at 10 000 g. The solution (20 μl) was injected into the LC/MS. The LC/MS method is as described in Example 6.

The subject of series [3] is S. aureus strains ATCC13709 and RN4220. The series can be described thus: microbe, parasite or virus in culture. The note with it: Staphylococcus aureus, ATCC13709; CAMHB, 37° C., 18 h; data not shown; read-out: minimum inhibitory concentration (MIC). Type of series: cell-based. As for the experimental part: Susceptibility of S. aureus strains ATCC13709 and RN4220 to the commercial antibiotics and synthesized compounds was determined by following the guidelines set by the Clinical and Laboratory Standards Institute (formerly the National Committee for Clinical Laboratory Standards) (M26-A). Compounds were diluted two-fold serially in DMSO and transferred to cation-adjusted Mueller Hinton broth (CAMHB; Becton Dickinson). 50 μL of compounds diluted in CAMHB was mixed with 100 μL of bacteria diluted in CAMHB in 96-well microtiter plates. The final number of micro-organisms in the assay was 5×10^5 c.f.u. per mL and the final concentration of DMSO in the assay was 1.25%. Assays were set up in duplicate and incubated at 37° C. for 18 h. The concentration of compound that inhibited visible growth was reported as the minimum inhibitory concentration (MIC).

Series [4] concerns Hela cells. The series can be described thus: Cytotoxicity assay (MTS reduction). Type of series: cell-based. The note with it: concentrations up to 100 μM, 18 h, MTS reagent; data not shown. The method in brief: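 HeLa cells (2×10^4 per well) exposed to compound at 100, 50, 25 and 12.5 μM in DMEM with 1% bovine growth serum, 18 h at 37° C., 5% CO2. Growth inhibition read by MTS tetrazolium reduction.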
A general note: Tetrazolium assays rely on reduction of a dye to a coloured formazan, in cell work by metabolically active cells.

The subject of series [5] is S. aureus ATCC 13709. As to the kind of experiment: Combination with Rifampicin in treatment of osteomyelitis induced in rats. It counts as in vivo, rat. The note with it: 34 mg/kg 54 IV + 20 mg/kg Rifampicin s.c. on days 14, 15, 16, 17 after surgery; titer on day 43. The method, then: The cells were washed twice with phosphate-buffered saline (PBS) and resuspended in BHIB supplemented with 10% (vol./vol.) fetal bovine serum at a density of approximately 10^10 colony forming units (CFU)/ml (based upon turbidimetry). The suspension was aliquoted and a portion was used to check the CFU count. The culture was stored frozen (−80° C.) and was used without subculture. For use as an inoculum the culture was thawed, diluted in PBS and kept in an ice bath until it was used.
Animals were infected as described by O'Reilly et al. (Antimicrobial Agents and Chemotherapy (1992), 36(12): 2693-97) to generate the bone infection. Female CD rats (age, 57 to 70 days; n=5/group; Charles River, St-Constant, Canada) were anaesthetized by isofluorane before and during the surgery. Following complete induction of anesthesia, the rat was placed ventral side up and hair was shaved from the surgical site. The skin over the leg was cleaned and disinfected (proviodine-ethanol 70%). A longitudinal incision below the knee joint was made in the sagital plane. The incision was made over the bone below the “knee joint” (tibia head or condyle) but not completely extending to the ankle. A high speed drill fitted with a 2 mm bulb bit was used to drill a hole into the medullar cavity of the tibia. […]

Converted amounts (≈) assume the structure as drawn.

On to `COc1c(N2C[C@@H]3CCCN[C@@H]3C2)c(F)cc2c(=O)c(C(=O)OCC(=O)NC(P(=O)(O)O)P(=O)(O)O)cn(C3CC3)c12` [Compound 52, (1,1-Bisphosphonomethylcarbamoyl)methyl 1-cyclopropyl-6-fluoro-1,4-dihydro-7-((4aS,7aS)-octahydropyrrolo[3,4-b]pyridin-6-yl)-8-methoxy-4-oxoquinoline-3-carboxylate], for which the “Binding to bone (%) LC/MS” value in series [1] was determined as 94.2 ± 3.2%. For the same compound, the “level of regenerated moxifloxacin 3, uninfected versus infected tibiae” value in series [2] is given as “not significantly different”.

Regarding `COc1c(N2CCNC(C)C2)c(F)cc2c(=O)c(C(=O)OCC(=O)NC(P(=O)(O)O)P(=O)(O)O)cn(C3CC3)c12` (centres unmarked) [Compound 54, (1,1-Bisphosphonomethylcarbamoyl)methyl 7-(3-methylpiperazin-1-yl)-1-cyclopropyl-6-fluoro-1,4-dihydro-8-methoxy-4-oxoquinoline-3-carboxylate], the MIC in series [3] fell in the range of 4 to 16 mg/L (≈ 6.6 to 26.4 µM). The cytotoxicity entry in series [4] is recorded as “no signs of any cytotoxicity”. In series [5], the “bacterial titer in the infected tibiae, combination with Rifampicin” value is “statistically significant decrease (p=0.007)”.
